Laboratory results published in US7691848B2, “Pyrrolobenzodiazepine arylcarboxamides and derivatives thereof as follicle-stimulating hormone receptor antagonists” (Wyeth, priority 2005, dated 2010).
Counter-ions that a name gives are not always drawn.

Key:
human FSH receptor = target: T1, human FSH receptor (Homo sapiens, UniProt P23945); assay: Follicle-Stimulating Hormone Receptor-Dependent Cre-Luciferase Reporter Gene Assay (CHO FSH-R 6CRE-Luc cells); assay type: cell-based; conditions: for IC50: dose-response format, in presence of EC50 of purified human FSH
T1 construct: host or cells: CHO-K1 (CHO FSH-R 6CRE-Luc, 1D7 cells)
T1 sequence (P23945 18-695): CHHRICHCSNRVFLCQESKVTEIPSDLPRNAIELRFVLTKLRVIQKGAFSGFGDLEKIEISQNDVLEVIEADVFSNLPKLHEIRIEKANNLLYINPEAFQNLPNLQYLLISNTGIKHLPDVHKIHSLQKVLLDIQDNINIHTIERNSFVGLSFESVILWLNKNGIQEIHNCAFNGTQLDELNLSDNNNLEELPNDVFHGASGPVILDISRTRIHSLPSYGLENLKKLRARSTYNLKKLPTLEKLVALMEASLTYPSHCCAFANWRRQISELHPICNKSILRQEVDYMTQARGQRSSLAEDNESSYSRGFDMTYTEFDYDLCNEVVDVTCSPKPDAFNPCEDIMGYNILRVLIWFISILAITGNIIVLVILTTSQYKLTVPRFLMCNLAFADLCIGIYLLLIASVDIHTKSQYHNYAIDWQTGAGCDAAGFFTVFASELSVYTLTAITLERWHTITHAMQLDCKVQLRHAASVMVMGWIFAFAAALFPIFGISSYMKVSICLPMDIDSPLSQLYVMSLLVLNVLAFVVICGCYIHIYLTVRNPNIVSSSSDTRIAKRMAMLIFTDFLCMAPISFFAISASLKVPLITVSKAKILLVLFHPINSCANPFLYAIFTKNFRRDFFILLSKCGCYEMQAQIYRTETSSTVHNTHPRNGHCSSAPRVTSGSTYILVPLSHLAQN
From the text: Follicle-Stimulating Hormone Receptor-Dependent Cre-Luciferase Reporter Gene Assay for the Identification of Follicle-Stimulating Hormone (FSH) Antagonists
A Chinese hamster ovarian cell line that stably produces the human FSH receptor and a luciferase reporter gene regulated by cAMP response elements was used to identify and determine the relative potencies of human FSH receptor antagonists. See for example, Kelton, C. A., et al. Mol. Cell. Endocrinol. 89:141-151 (1992), Tilly, J. L., et al. Endocrinology 131:799-806(1992), and George, S. E., et al. J. Biomol. Screening 2:235-240 (1997).
Compound Vehicle: Stock compounds were solubilized in an appropriate vehicle, e.g., phosphate buffered saline (PBS) or dimethyl sulfoxide (DMSO), at 30 mM. The compounds were subsequently diluted in DMSO to working dilutions of 1 and 20 or 30 mM for 2-dose testing format and 1 μM-10 mM for dose-response format. The DMSO dilutions were diluted 500-fold in sterile growth medium [D-MEM/F-12 (GIBCO/BRL; Grand Island, NY) containing 15 mM HEPES, 2 mM 1-glutamine, pyridoxine hydrochloride, phenol red and 5% FetalClone® II (HyClone Laboratories, Inc; Logan, Utah), 0.2% DMSO, 100 units penicillin G/ml, and 100 μg streptomycin sulfate/ml (GIBCO/BRL)]. The concentration of the vehicle in each of the compound dilutions was the same.
Positive Controls: Purified human FSH (>98%) was purchased from Cortex Biochem, Inc. (San Leandro, Calif.) and 3-[(2S*,5R*)-5-{[2-(1H-Indol-3-yl)-ethylcarbamoyl]-methyl}-4-oxo-2-(5-phenylethynyl-thiophen-2-yl)-thiazolidin-3-yl]-benzamide (an FSH-R thiazolidinone antagonist) was prepared by processes described by R. A. Scheuerman et al. in U.S. Pat. No. 6,426,357 (Affymax).
The CHO FSH-R 6CRE-Luc cells (1D7 cells) were obtained from Affymax (Palo Alto, Calif.). These Chinese hamster ovary cells (CHO-K1) were engineered genetically to stably express the recombinant human FSH receptor gene and a luciferase reporter gene under the regulation of 6 copies of a cAMP response element. The cells were plated one day prior to treatment into 96-well white opaque plates at a density of 50,000 cells/100 μl/well in growth medium. On the day of treatment, the growth medium was removed from the wells by aspiration and 50 μl of fresh growth medium was added to each well. The cells were incubated at 37° C. in a humidified incubator with 5% CO2/95% air.
The treated cells were incubated for 4 hours at 37° C. in a humidified incubator with 5% CO2/95% air. At the end of the incubation period, luciferase activity was measured by chemiluminescence using a commercially available kit (LucScreen, Tropix, Inc., Bedford, Mass.) according to the manufacturer's specifications, except that Buffer 1 and Buffer 2 were mixed together in equal proportion prior to the addition of 100 μl of the combined reagents to each well. Chemiluminescence was detected using a luminometer (EG & G Berthold Microlumat LB 96 P, Wallac, Gaithersburg, Md.) with chemiluminescence measured for 1 sec/well. Background luminescence was measured for each well prior to the addition of the LucScreen reagent.
In the 96-well 2-dose format, each compound was tested in duplicate at each dose. […] One plate was used to test a maximum of 22 compounds.
The EC50 of purified human FSH alone was tested in triplicate with each test compound. The doses chosen to test each compound were extrapolated from the initial 2-dose screening process. Along with the test compounds, purified human FSH also was tested in a dose response (0.03, 0.1, 0.3, 1, 3, 10, and 30 ng/ml) for a positive control and quality control. One plate was used for 3 test compounds and the FSH positive control.
Luciferase activity is expressed as relative light units/sec/well. Luciferase activity in antagonist was compared to the appropriate negative and positive controls. For 2-dose testing, results are reported as luciferase activity and are expressed as percent inhibition of the response obtained from the EC50 of FSH.

[1] = 2-dose format, concentration in parentheses 30 μM, inhibition of the response to EC50 of FSH

For `O=C(NCc1ccc(Cl)c(Cl)c1)c1ccc2n1Cc1ccccc1N(C(=O)CSc1ccc(Br)cc1)C2` [Example 81, 10-{[(4-BROMOPHENYL)THIO]ACETYL}-N-(3,4-DICHLOROBENZYL)-10,11-DIHYDRO-5H-PYRROLO[2,1-C][1,4]BENZODIAZEPINE-3-CARBOXAMIDE], which IC50 (human FSH receptor) is on record?
Its IC50 is > 30 µM.

What about the melting point of the same molecule?
Its melting point is 150 °C.

Which results are given for `COc1ccc(CNC(=O)c2ccc3n2Cc2ccccc2N(C(=O)c2ccc(-c4ccccc4C)c(OC)c2)C3)cc1` [Example 36, N-(4-METHOXYBENZYL)-10-[(2-METHOXY-2′-METHYL-1,1′-BIPHENYL-4-YL)CARBONYL]-10,11-DIHYDRO-5H-PYRROLO[2,1-C][1,4]BENZODIAZEPINE-3-CARBOXAMIDE]?
inhibition at 30 µM (human FSH receptor; [1]): 60%; melting point: 178 to 179 °C

Which results are given for `Cc1ccccc1-c1ccc(C(=O)N2Cc3ccc(C(=O)NCc4ccc(OC(F)(F)F)cc4)n3Cc3ccccc32)cc1C` [Example 19]?
inhibition at 30 µM (human FSH receptor; [1]): 30%; melting point: 147 to 149 °C

What does the source list for `O=C(Nc1cccc(-c2ccccc2)c1)c1ccc2n1Cc1ccccc1N(C(=O)COc1ccc(Cl)cc1)C2` [Example 100, N-(1,1′-BIPHENYL-3-YL)-10-[(4-CHLOROPHENOXY)ACETYL]-10,11-DIHYDRO-5H-PYRROLO[2,1-C][1,4]BENZODIAZEPINE-3-CARBOXAMIDE]?
IC50 (human FSH receptor): > 30 µM; melting point: 185 to 189 °C

What does the source list for `O=C(NCCc1ccc(O)cc1)c1ccc2n1Cc1ccccc1N(C(=O)COc1ccc(Cl)cc1)C2` [Example 68, 10-[(4-CHLOROPHENOXY)ACETYL]-N-[2-(4-HYDROXYPHENYL)ETHYL]-10,11-DIHYDRO-5H-PYRROLO[2,1-C][1,4]BENZODIAZEPINE-3-CARBOXAMIDE]?
IC50 (human FSH receptor): 13.2 µM; melting point: 206 to 207 °C

With `Cc1ccccc1-c1ccc(C(=O)N2Cc3ccc(C(=O)NCCCCc4ccccc4)n3Cc3ccccc32)cc1C` [Example 56] as the molecule, how does the melting point read?
The melting point was 129 to 131 °C.

Which results are given for `COc1cc(C(=O)N2Cc3ccc(C(=O)NCCCCc4ccccc4)n3Cc3ccccc32)ccc1-c1ccccc1C` [Example 49, 10-[(2-METHOXY-2′-METHYL-1,1′-BIPHENYL-4-YL)CARBONYL]-N-(4-PHENYLBUTYL)-10,11-DIHYDRO-5H-PYRROLO[2,1-C][1,4]BENZODIAZEPINE-3-CARBOXAMIDE]?
IC50 (human FSH receptor): > 30 µM; melting point: 154 to 159 °C

With `COc1cc(CNC(=O)c2ccc3n2Cc2ccccc2N(C(=O)COc2ccc(Cl)cc2C)C3)ccc1O` [Example 78, 10-[(4-CHLORO-2-METHYLPHENOXY)ACETYL]-N-(4-HYDROXY-3-METHOXYBENZYL)-10,11-DIHYDRO-5H-PYRROLO[2,1-C][1,4]BENZODIAZEPINE-3-CARBOXAMIDE] as the molecule, how does the inhibition at 30 µM (human FSH receptor; [1]) read?
Its inhibition at 30 µM is 33%.

What about the melting point of the same molecule?
Its melting point is 167 to 168 °C.

Which IC50 (human FSH receptor) does the source give for `CC(C)(C)c1ccc(NC(=O)c2ccc3n2Cc2ccccc2N(C(=O)COc2ccc(Cl)cc2)C3)cc1` [Example 102, N-(4-TERT-BUTYLPHENYL)-10-[(4-CHLOROPHENOXY)ACETYL]-10,11-DIHYDRO-5H-PYRROLO[2,1-C][1,4]BENZODIAZEPINE-3-CARBOXAMIDE] here?
Its IC50 is > 30 µM.

And the melting point?
The melting point was 111 to 113 °C.

For `COc1ccccc1-c1ccc(C(=O)N2Cc3ccc(C(=O)NCCc4ccc(O)cc4)n3Cc3ccccc32)cc1C` [Example 66, N-[2-(4-HYDROXYPHENYL)ETHYL]-10-[(2′-METHOXY-2-METHYL-1,1′-BIPHENYL-4-YL)CARBONYL]-10,11-DIHYDRO-5H-PYRROLO[2,1-C][1,4]BENZODIAZEPINE-3-CARBOXAMIDE], which IC50 (human FSH receptor) is on record?
Its IC50 is > 30 µM.

And the melting point?
Its melting point is 138 to 147 °C.

With `Cc1ccccc1-c1ccc(C(=O)N2Cc3ccc(C(=O)NCc4cccc(CN)c4)n3Cc3ccccc32)cc1C` [Example 12] as the molecule, how does the IC50 (human FSH receptor) read?
The IC50 was 11.9 µM.

Which inhibition at 30 µM (human FSH receptor; [1]) does the source give for `Cc1ccccc1-c1ccc(C(=O)N2Cc3ccc(C(=O)NCCCc4ccccc4)n3Cc3ccccc32)cc1C` [Example 25] here?
The inhibition at 30 µM was 59%.

And the melting point?
The melting point was 183 to 184 °C.

For `COc1cc(CNC(=O)c2ccc3n2Cc2ccccc2N(C(=O)CSc2ccc(Br)cc2)C3)ccc1O` [Example 82, 10-{[(4-BROMOPHENYL)THIO]ACETYL}-N-(4-HYDROXY-3-METHOXYBENZYL)-10,11-DIHYDRO-5H-PYRROLO[2,1-C][1,4]BENZODIAZEPINE-3-CARBOXAMIDE], which inhibition at 30 µM (human FSH receptor; [1]) is on record?
Its inhibition at 30 µM is 37%.

And the melting point?
The melting point was 168 °C.

For `COc1cc(C(=O)N2Cc3ccc(C(=O)NCc4ccc(N(C)C)cc4)n3Cc3ccccc32)ccc1-c1ccccc1C` [Example 57, N-[4-(DIMETHYLAMINO)BENZYL]-10-[(2-METHOXY-2′-METHYL-1,1′-BIPHENYL-4-YL)CARBONYL]-10,11-DIHYDRO-5H-PYRROLO[2,1-C][1,4]BENZODIAZEPINE-3-CARBOXAMIDE], which IC50 (human FSH receptor) is on record?
Its IC50 is > 30 µM.

And the melting point?
The melting point was 148 to 150 °C.

With `Cc1ccccc1-c1ccc(C(=O)N2Cc3ccc(C(=O)NCc4ccc(O)cc4)n3Cc3ccccc32)cc1C` [Example 9] as the molecule, how does the inhibition at 30 µM (human FSH receptor; [1]) read?
Its inhibition at 30 µM is 37%.

Which melting point does the source give for `COc1cc(C(=O)N2Cc3ccc(C(=O)NCCc4ccc5c(c4)OCO5)n3Cc3ccccc32)ccc1-c1ccccc1C` [Example 62, N-[2-(1,3-BENZODIOXOL-5-YL)ETHYL]-10-[(2-METHOXY-2′-METHYL-1,1′-BIPHENYL-4-YL)CARBONYL]-10,11-DIHYDRO-5H-PYRROLO[2,1-C][1,4]BENZODIAZEPINE-3-CARBOXAMIDE] here?
The melting point was 178 to 179 °C.

Which melting point does the source give for `Cc1ccccc1-c1ccc(C(=O)N2Cc3ccc(C(=O)NCCc4ccc5c(c4)OCO5)n3Cc3ccccc32)cc1C` (as salt: hydrochloride) [Example 33] here?
The melting point was 154 to 157 °C.

With `COc1ccccc1-c1ccc(C(=O)N2Cc3ccc(C(=O)NCc4c(Cl)cccc4Oc4ccccc4)n3Cc3ccccc32)cc1` [Example 3, N-(2-CHLORO-6-PHENOXYBENZYL)-10-[(2′-METHOXY-1,1′-BIPHENYL-4-YL)CARBONYL]-10,11-DIHYDRO-5H-PYRROLO[2,1-C][1,4]BENZODIAZEPINE-3-CARBOXAMIDE] as the molecule, how does the inhibition at 30 µM (human FSH receptor; [1]) read?
The inhibition at 30 µM was 8%.

With `COc1cc(C(=O)N2Cc3ccc(C(=O)NCCc4cccc(Cl)c4)n3Cc3ccccc32)ccc1-c1ccccc1C` [Example 51, N-[2-(3-CHLOROPHENYLETHYL]-10-[(2-METHOXY-2′-METHYL-1,1′-BIPHENYL-4-YL)CARBONYL]-10,11-DIHYDRO-5H-PYRROLO[2,1-C][1,4]BENZODIAZEPINE-3-CARBOXAMIDE] as the molecule, how does the IC50 (human FSH receptor) read?
The IC50 was > 30 µM.

With `Cc1cc(Cl)ccc1OCC(=O)N1Cc2ccc(C(=O)NCc3ccc4c(c3)OCO4)n2Cc2ccccc21` [Example 76] as the molecule, how does the “CRE % inhibition (μM)” value (human FSH receptor; [1]) read?
Its value is 15(30) %.

Which IC50 (human FSH receptor) does the source give for `Cc1ccccc1-c1ccc(C(=O)N2Cc3ccc(C(=O)NCc4ccc(CN)cc4)n3Cc3ccccc32)cc1C` [Example 11] here?
Its IC50 is 14.9 µM.
